Experiments:
HEL [1] = assay: Cytotoxic concentration required to reduce HEL cell growth by 50%; format: functional; settings: Homo sapiens
HEL [2] = assay: Effective concentration against human cytomegalovirus AD-169 strain in HEL cell cultures; format: functional, cell-based
HEL [3] = assay: Effective concentration against human cytomegalovirus Davies strain in HEL cell cultures; format: functional, cell-based

| Structure (SMILES) | CC50 (HEL [1]) | EC50 (HEL [2]) | EC50 (HEL [3]) |
| --- | --- | --- | --- |
| CC(C)(C)OC(=O)C1(Cc2ccccc2)CC(=O)N1C(=O)OCc1ccccc1 (centres undefined) | 36 µM | 11 µM | 13 µM |
| C[C@@H](NC(=O)N1C(=O)C[C@@]1(Cc1ccccc1)C(=O)OC(C)(C)C)c1ccccc1 | 70 µM | 32 µM | 33 µM |
| C[C@@H](NC(=O)N1C(=O)C[C@]1(Cc1ccccc1)C(=O)OC(C)(C)C)c1ccccc1 | > 200 µM | 100 µM | 107 µM |
| C[C@@H](NC(=O)N1C(=O)C[C@@]1(Cc1ccccc1)C(=O)O)c1ccccc1 | > 200 µM | > 200 µM | > 200 µM |
| C[C@H](NC(=O)N1C(=O)C[C@@]1(Cc1ccccc1)C(=O)OC(C)(C)C)c1ccccc1 | 184 µM | 35 µM | 35 µM |
| C[C@@H](NC(=O)N1C(=O)C[C@]1(Cc1ccccc1)C(=O)O)c1ccccc1 | > 200 µM | > 50 µM | > 50 µM |
| C[C@H](NC(=O)N1C(=O)C[C@]1(Cc1ccccc1)C(=O)O)c1ccccc1 | > 200 µM | > 200 µM | > 200 µM |
| CC(C)(C)OC(=O)C1(Cc2ccccc2)CC(=O)N1C(=O)Nc1ccccc1 (centres undefined) | 118 µM | 50 µM | 50 µM |
| CC(C)(C)OC(=O)C1(Cc2ccccc2)CCN1C(=O)OCc1ccccc1 (centres undefined) | 34 µM | 0.74 µM | 0.62 µM |
| CC(C)(C)OC(=O)N1C(=O)CC1(Cc1ccccc1)C(=O)OC(C)(C)C (centres undefined) | > 200 µM | > 200 µM | > 200 µM |
| C[C@H](NC(=O)N1C(=O)C[C@@]1(Cc1ccccc1)C(=O)O)c1ccccc1 | 187 µM | > 50 µM | > 50 µM |
| O=C1C[C@H](Cc2ccccc2)N1C(=O)NCc1ccccc1 | > 750 µM | 53 µM | – |
| C[C@H](NC(=O)N1C(=O)C[C@]1(Cc1ccccc1)C(=O)OC(C)(C)C)c1ccccc1 | 164 µM | 32 µM | 33 µM |
| Nc1ccn(C[C@@H](CO)OCP(=O)(O)O)c(=O)n1 [CIDOFOVIR] | > 150 µM | 0.16 µM | 0.5 µM |
| Nc1nc2c(ncn2COC(CO)CO)c(=O)[nH]1 [GANCICLOVIR] | > 150 µM | 0.9 µM | 0.8 µM |

Source: ChEMBL document CHEMBL1137972, “Synthesis and anti-HCMV activity of 1-acyl-beta-lactams and 1-acylazetidines derived from phenylalanine” (Bioorg Med Chem Lett, 2004)
